Laboratory results: article PMC10612255, “Discovery of novel 2,3,4,5-tetrahydrospiro[benzo[c]azepine-1,1’-cyclohexan]-5-ol derivatives as PARP-1 inhibitors” (BMC Chemistry, 2023)
Where two headings read alike, the source gives them in different places.

Experiments:
A549 = experiment: MTT assay, anti-proliferative effect on A549 cells; assay type: cell-based, human; settings: read-out: IC50 A549
Experimental: (§1) A549, OVCAR-3, HCT-116, and MCF-7 were purchased from American type culture collection (ATCC, USA). […] And all cell lines used in the experiment were tested for mycoplasma contamination every two weeks.
(§2) A549, OVCAR-3, HCT-116, and MCF-7 cells were seeded in 96-well plates, and then treated with target compounds for 72 h. Then, 20 µL MTT (5 mg/mL, in PBS) was added into each well, and dissolved in 150 µL DMSO after incubation for 4 h. Finally, the absorbance was measured with microplate reader (490 nm).

MCF-7 = experiment: MTT assay, anti-proliferative effect on MCF-7 cells; assay type: cell-based, human; settings: read-out: IC50 MCF-7
Experimental: as §1, §2

HCT-116 = experiment: MTT assay, anti-proliferative effect on HCT-116 cells; assay type: cell-based, human; settings: read-out: IC50 HCT-116
Experimental: as §1, §2

OVCAR-3 = experiment: MTT assay, anti-proliferative effect on OVCAR-3 cells; assay type: cell-based, human; settings: read-out: IC50 OVCAR-3
Experimental: as §1, §2

| Structure (SMILES) | IC50 (A549; Homo sapiens, A549, 72 h) [µM] | melting point [°C] | IC50 (MCF-7; Homo sapiens, MCF7, 72 h) [µM] | IC50 (HCT-116; Homo sapiens, HCT-116, 72 h) [µM] | IC50 (OVCAR-3; Homo sapiens, OVCAR-3, 72 h) [µM] | IC50 (A549; A549, human lung adenocarcinoma cell line, MTT, 72 h, Mean ± SD) [µM] | IC50 (MCF-7; MCF7, human breast cancer cell line, MTT, 72 h, Mean ± SD) [µM] | IC50 (HCT-116; HCT-116, human colon cancer cell line, MTT, 72 h, Mean ± SD) [µM] | IC50 (OVCAR-3; OVCAR-3, human ovarian cancer cell line, MTT, 72 h, Mean ± SD) [µM] |
| --- | --- | --- | --- | --- | --- | --- | --- | --- | --- |
| OC1CCN(Cc2cn(-c3cccc(Br)c3)nn2)C2(CCCCC2)c2ccccc21 (centres unmarked) [Compound 11o, 2-((1-(3-bromophenyl)-1 H-1,2,3-triazol-4-yl)methyl)-2,3,4,5-tetrahydrospiro[benzo[c]azepine-1,1’-cyclohexan]-5-ol] | 7.4 ± 1.75 | 169.3 to 170.2 | 7.99 ± 2.53 | 10.8 ± 2.11 | 4.2 ± 0.48 |  |  |  |  |
| N#Cc1ccc(-n2cc(CN3CCC(O)c4ccccc4C34CCCCC4)nn2)cc1 (centres unmarked) [Compound 11v, 4-(4-((5-hydroxy-4,5-dihydrospiro[benzo[c]azepine-1,1’-cyclohexan]-2(3 H)-yl)methyl)-1 H-1,2,3-triazol-1-yl)benzonitrile] | > 50 |  | > 50 | > 50 | > 50 |  |  |  |  |
| CNCc1ccc(-c2[nH]c3cc(F)cc4c3c2CCNC4=O)cc1 [Rucaparib, reference compound] |  |  |  |  |  | 4.91 ± 0.11 | 13 ± 0.28 | 13.5 ± 0.17 | 2.41 ± 0.13 |
| Oc1cccc(-n2cc(CN3CCC(O)c4ccccc4C34CCCCC4)nn2)c1 (centres unmarked) [Compound 11r, 2-((1-(3-hydroxyphenyl)-1 H-1,2,3-triazol-4-yl)methyl)-2,3,4,5-tetrahydrospiro[benzo[c]azepine-1,1’-cyclohexan]-5-ol] | 11.9 ± 5.74 | 157.4 to 158.6 | > 50 | 12.1 ± 0.98 | 3.9 ± 0.26 |  |  |  |  |
| OC1CCN(Cc2cn(-c3cccc(Cl)c3)nn2)C2(CCCCC2)c2ccccc21 (centres unmarked) [Compound 11i, 2-((1-(3-chlorophenyl)-1 H-1,2,3-triazol-4-yl)methyl)-2,3,4,5-tetrahydrospiro[benzo[c]azepine-1,1’-cyclohexan]-5-ol] | 13.6 ± 2.47 | 168.1 to 168.8 | 6.34 ± 3.17 | 10.8 ± 2.95 | 4.28 ± 0.77 |  |  |  |  |
| Cc1ccc(-n2cc(CN3CCC(O)c4ccccc4C34CCCCC4)nn2)cc1 (centres unmarked) [Compound 11 g, 2-((1-(p-tolyl)-1 H-1,2,3-triazol-4-yl)methyl)-2,3,4,5-tetrahydrospiro[benzo[c]azepine-1,1’-cyclohexan]-5-ol] | 6.84 ± 1.68 | 164.3 to 165.2 | 7.96 ± 1.1 | 9.81 ± 2.89 | 4.64 ± 0.99 |  |  |  |  |
| COc1ccc(-n2cc(CN3CCC(O)c4ccccc4C34CCCCC4)nn2)cc1 (centres unmarked) [Compound 11 m, 2-((1-(4-methoxyphenyl)-1 H-1,2,3-triazol-4-yl)methyl)-2,3,4,5-tetrahydrospiro[benzo[c]azepine-1,1’-cyclohexan]-5-ol] | 8.7 ± 4.1 | 170.2 to 172.3 | 9.33 ± 1.33 | 5.87 ± 0.54 | 6 ± 1.83 |  |  |  |  |
| Oc1ccc(-n2cc(CN3CCC(O)c4ccccc4C34CCCCC4)nn2)cc1 (centres unmarked) [Compound 11s, 2-((1-(4-hydroxyphenyl)-1 H-1,2,3-triazol-4-yl)methyl)-2,3,4,5-tetrahydrospiro[benzo[c]azepine-1,1’-cyclohexan]-5-ol] | > 50 | 171.1 to 172.3 | > 50 | > 50 | > 50 |  |  |  |  |
| OC1CCN(Cc2cn(-c3ccc(Cl)cc3)nn2)C2(CCCCC2)c2ccccc21 (centres unmarked) [Compound 11j, 2-((1-(4-chlorophenyl)-1 H-1,2,3-triazol-4-yl)methyl)-2,3,4,5-tetrahydrospiro[benzo[c]azepine-1,1’-cyclohexan]-5-ol] | 18.8 ± 2.67 | 165.6 to 166.3 | 5.27 ± 0.92 | 17.9 ± 1.95 | 5.79 ± 1.25 |  |  |  |  |
| Oc1ccccc1-n1cc(CN2CCC(O)c3ccccc3C23CCCCC3)nn1 (centres unmarked) [Compound 11q, 2-((1-(2-hydroxyphenyl)-1 H-1,2,3-triazol-4-yl)methyl)-2,3,4,5-tetrahydrospiro[benzo[c]azepine-1,1’-cyclohexan]-5-ol] | 10.6 ± 1.2 | 156.8 to 157.2 | 8.72 ± 0.71 | > 50 | 13.2 ± 4.09 |  |  |  |  |
| OC1CCN(Cc2cn(-c3ccc(F)cc3)nn2)C2(CCCCC2)c2ccccc21 (centres unmarked) [Compound 11d, 2-((1-(4-fluorophenyl)-1 H-1,2,3-triazol-4-yl)methyl)-2,3,4,5-tetrahydrospiro[benzo[c]azepine-1,1’-cyclohexan]-5-ol] | 4.88 ± 1.18 | 166.2 to 166.8 | 16.2 ± 3.88 | 8.76 ± 3.11 | 17.1 ± 1.5 |  |  |  |  |
| N#Cc1ccccc1-n1cc(CN2CCC(O)c3ccccc3C23CCCCC3)nn1 (centres unmarked) [Compound 11t, 2-(4-((5-hydroxy-4,5-dihydrospiro[benzo[c]azepine-1,1’-cyclohexan]-2(3 H)-yl)methyl)-1 H-1,2,3-triazol-1-yl)benzonitrile] | > 50 |  | > 50 | > 50 | > 50 |  |  |  |  |
| OC1CCN(Cc2cn(-c3cccc(F)c3)nn2)C2(CCCCC2)c2ccccc21 (centres unmarked) [Compound 11c, 2-((1-(3-fluorophenyl)-1 H-1,2,3-triazol-4-yl)methyl)-2,3,4,5-tetrahydrospiro[benzo[c]azepine-1,1’-cyclohexan]-5-ol] | 4.29 ± 0.56 |  | 7.6 ± 1.96 | 12.6 ± 2.43 | 7.65 ± 2.56 |  |  |  |  |
| OC1CCN(Cc2cn(-c3ccccc3)nn2)C2(CCCCC2)c2ccccc21 (centres unmarked) [Compound 11a, 2-((1-phenyl-1 H-1,2,3-triazol-4-yl)methyl)-2,3,4,5-tetrahydrospiro[benzo[c]azepine-1,1’-cyclohexan]-5-ol] | 9.5 ± 1.23 |  | 15.5 ± 2.53 | 10.3 ± 2.74 | 13.6 ± 2.45 |  |  |  |  |
| OC1CCN(Cc2cn(-c3ccccc3Br)nn2)C2(CCCCC2)c2ccccc21 (centres unmarked) [Compound 11n, 2-((1-(2-bromophenyl)-1 H-1,2,3-triazol-4-yl)methyl)-2,3,4,5-tetrahydrospiro[benzo[c]azepine-1,1’-cyclohexan]-5-ol] | 17.9 ± 3.94 | 168.2 to 169.8 | 10.6 ± 0.85 | 15.7 ± 1.98 | 12.6 ± 1.55 |  |  |  |  |
| OC1CCN(Cc2cn(-c3ccccc3Cl)nn2)C2(CCCCC2)c2ccccc21 (centres unmarked) [Compound 11 h, 2-((1-(2-chlorophenyl)-1 H-1,2,3-triazol-4-yl)methyl)-2,3,4,5-tetrahydrospiro[benzo[c]azepine-1,1’-cyclohexan]-5-ol] | 15.1 ± 1.18 | 167.9 to 168.3 | 6.5 ± 1.78 | 8.97 ± 3.16 | 4.44 ± 0.1 |  |  |  |  |
| OC1CCN(Cc2cn(-c3ccc(Br)cc3)nn2)C2(CCCCC2)c2ccccc21 (centres unmarked) [Compound 11p, 2-((1-(4-bromophenyl)-1 H-1,2,3-triazol-4-yl)methyl)-2,3,4,5-tetrahydrospiro[benzo[c]azepine-1,1’-cyclohexan]-5-ol] | 9.58 ± 2.53 |  | 16.4 ± 4.37 | 9.93 ± 3.01 | 12.7 ± 1.43 |  |  |  |  |
| COc1ccccc1-n1cc(CN2CCC(O)c3ccccc3C23CCCCC3)nn1 (centres unmarked) [Compound 11k, 2-((1-(2-methoxyphenyl)-1 H-1,2,3-triazol-4-yl)methyl)-2,3,4,5-tetrahydrospiro[benzo[c]azepine-1,1’-cyclohexan]-5-ol] | 12.6 ± 5.91 |  | 7.54 ± 1.05 | 13.1 ± 2.03 | 10.5 ± 0.09 |  |  |  |  |
| Cc1cccc(-n2cc(CN3CCC(O)c4ccccc4C34CCCCC4)nn2)c1 (centres unmarked) [Compound 11f, 2-((1-(m-tolyl)-1 H-1,2,3-triazol-4-yl)methyl)-2,3,4,5-tetrahydrospiro[benzo[c]azepine-1,1’-cyclohexan]-5-ol] | 11.8 ± 1.07 | 167.3 to 168.2 | 8.94 ± 3.17 | 12.2 ± 2.01 | 21.7 ± 8.94 |  |  |  |  |
| N#Cc1cccc(-n2cc(CN3CCC(O)c4ccccc4C34CCCCC4)nn2)c1 (centres unmarked) [Compound 11u, 3-(4-((5-hydroxy-4,5-dihydrospiro[benzo[c]azepine-1,1’-cyclohexan]-2(3 H)-yl)methyl)-1 H-1,2,3-triazol-1-yl)benzonitrile] | > 50 |  | > 50 | > 50 | > 50 |  |  |  |  |
